Among the data in US7989464B2, “mGluR1 antagonists as therapeutic agents” (Schering Corporation, priority 2004, dated 2011) are IC50 values, retold here.

The term IC50 denotes the point on the concentration scale where inhibition reaches its midpoint.

Bounds are passed on as bounds.

The target of one test is T1, hmGluR1 receptor (Homo sapiens, UniProt Q13255).
T1 construct: expressed in transfected cells
T1 sequence (Q13255 19-1194): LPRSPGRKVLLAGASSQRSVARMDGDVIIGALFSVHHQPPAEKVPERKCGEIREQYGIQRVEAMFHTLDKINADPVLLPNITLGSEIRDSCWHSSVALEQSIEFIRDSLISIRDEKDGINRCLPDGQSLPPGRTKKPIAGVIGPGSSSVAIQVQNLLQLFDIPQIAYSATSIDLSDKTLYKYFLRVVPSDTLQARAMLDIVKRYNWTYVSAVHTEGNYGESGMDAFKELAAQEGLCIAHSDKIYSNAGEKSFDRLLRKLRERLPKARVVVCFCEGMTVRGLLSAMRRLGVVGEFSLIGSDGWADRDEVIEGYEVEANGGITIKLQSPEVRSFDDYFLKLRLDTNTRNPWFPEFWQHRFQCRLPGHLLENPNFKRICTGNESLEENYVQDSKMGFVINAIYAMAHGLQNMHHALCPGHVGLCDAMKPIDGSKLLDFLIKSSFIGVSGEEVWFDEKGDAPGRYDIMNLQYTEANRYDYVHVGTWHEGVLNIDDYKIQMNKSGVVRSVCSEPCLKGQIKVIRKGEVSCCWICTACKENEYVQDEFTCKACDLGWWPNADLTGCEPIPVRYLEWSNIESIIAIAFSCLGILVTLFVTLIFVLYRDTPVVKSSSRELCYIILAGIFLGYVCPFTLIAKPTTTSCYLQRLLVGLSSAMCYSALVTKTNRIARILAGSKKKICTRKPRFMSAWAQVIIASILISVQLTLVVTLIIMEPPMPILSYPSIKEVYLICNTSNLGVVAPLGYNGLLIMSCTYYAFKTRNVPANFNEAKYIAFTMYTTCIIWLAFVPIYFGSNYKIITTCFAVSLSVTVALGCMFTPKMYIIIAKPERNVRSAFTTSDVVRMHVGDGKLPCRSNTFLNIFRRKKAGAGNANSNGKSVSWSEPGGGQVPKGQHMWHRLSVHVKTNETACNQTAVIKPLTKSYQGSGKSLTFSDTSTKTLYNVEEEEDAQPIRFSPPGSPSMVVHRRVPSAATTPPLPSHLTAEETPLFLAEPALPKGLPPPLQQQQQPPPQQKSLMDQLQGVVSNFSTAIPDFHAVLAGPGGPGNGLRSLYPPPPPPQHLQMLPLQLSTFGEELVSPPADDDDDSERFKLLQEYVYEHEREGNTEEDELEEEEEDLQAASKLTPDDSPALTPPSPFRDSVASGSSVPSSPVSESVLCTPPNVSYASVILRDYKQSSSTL
Briefly: IC50 determination: intracellular calcium mobilization (FLIPR) upon Quisqualate stimulation in CHO cells stably expressing hmGluR1. The format is cell-based. Conditions: against Quisqualate 1 μM (EC80), FLIPR calcium mobilization, read-out: IC50 Class. In outline:
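CHO cells stably expressing hmGluR1 were kept overnight in DMEM high glucose with GPT and 1 mM pyruvate, then loaded 2 h with Calcium 3 dye.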
For orientation: Calcium assays in cells follow changes in intracellular calcium, usually with a dye or a luminescent sensor.
Take `CCN(C)c1ccnc2sc3c(=O)n(-c4cccc(Cl)c4)cnc3c12` [28CA]: the IC50 is less than 50 nM.
Turning to `C=CCNc1ncnc2sc3c(=O)n(-c4ccc(Br)cc4)cnc3c12` [95BO], the IC50 was less than 50 nM.
As to `CN(C)c1cccc2sc3c(=O)n(-c4cccc(Cl)c4Cl)cnc3c12` [103I], the IC50 was greater than 1000 nM.
On to `C=CCNc1ccnc2sc3c(=O)n(-c4ccc(Cl)cc4)cnc3c12` [28DY], for which the IC50 is 50 to 150 nM.
For the compound `COc1ccnc2sc3c(=O)n(-c4ccc5c(c4)CCO5)cnc3c12` [25F], the IC50 lay within 150 to 1000 nM.
For the compound `COCCNc1ncnc2sc3c(=O)n(-c4ccc(C)cc4)cnc3c12` [95DJ], the IC50 was less than 50 nM.
Take `O=c1c2sc3nccc(NC4CC4)c3c2ncn1-c1ccc2occc2c1` [28BI]: the IC50 is less than 50 nM.
Turning to `CN(C)c1ccnc2sc3c(=O)n(-c4ccc(C5CC5)cc4F)cnc3c12` [137F], the IC50 lay in the range of 50 to 150 nM.
As to `Cc1ccc(-n2cnc3c(sc4nccc(NC(C)(C)CO)c43)c2=O)cc1` [28EX], the IC50 fell in the range of 50 to 150 nM.
For the compound `COc1ccc(-n2cnc3c(sc4nccc(NC5CC5)c43)c2=O)c(F)c1` [131H], the IC50 was 50 to 150 nM.
With `C#CCNc1ncnc2sc3c(=O)n(-c4ccc(F)cc4)cnc3c12` [95ER], the 50% inhibitory concentration (IC50) is less than 50 nM.
On the same count and under the same terms, in the case of `C=CCNc1ncnc2sc3c(=O)n(-c4ccc5scnc5c4)cnc3c12` [95BM] it was less than 50 nM.
Regarding `C=CCNc1ncnc2sc3c(=O)n(-c4ccc(OC)cc4)cnc3c12` [95GP], the IC50 is less than 50 nM.
`CNc1ncnc2sc3c(=O)n(-c4ccc(Br)cc4)cnc3c12` [95BD]: the IC50 was less than 50 nM.
For `CCN(C)c1ccnc2sc3c(=O)n(-c4cccc(F)c4)cnc3c12` [28CM], the half-inhibitory concentration (IC50) is less than 50 nM.
Regarding `Cc1ccc(-n2cnc3c(sc4nccc(N5CC[C@H](O)C5)c43)c2=O)cc1` [28CU], the IC50 was greater than 1000 nM.
As for `CNc1cc(O)nc2sc3c(=O)n(-c4ccc(C)cc4)cnc3c12` [172B], the IC50 is less than 50 nM.
On to `C=C(C)CNc1ncnc2sc3c(=O)n(-c4ccc(Br)cc4)cnc3c12` [95FA], for which the IC50 was less than 50 nM.
Same read-out and setting: next, `CCNc1ccnc2sc3c(=O)n(-c4ccc(OC)cc4C)cnc3c12` [28BO]: less than 50 nM; `C=CCN(C)c1ccnc2sc3c(=O)n(-c4ccc(Cl)cc4)cnc3c12` [28DZ]: less than 50 nM; `C#CCNc1ccnc2sc3c(=O)n(-c4ccc(OC)c(F)c4)cnc3c12` [28DW]: less than 50 nM.
On the same count and under the same terms, in the case of `COc1ccnc2sc3c(=O)n(-c4ccc(Cl)cc4F)cnc3c12` [28FT] it was 150 to 1000 nM; in that of `Cc1ccc(-n2cnc3c(sc4nccc(NCCCCO)c43)c2=O)cc1` [28CT], less than 50 nM; in that of `Nc1c([N+](=O)[O-])cnc2sc3c(=O)n(C4CCCCC4)cnc3c12` [compound 174], 150 to 1000 nM.
In the case of `COc1ccc(-n2cnc3c(sc4nc(Cl)cc(OC)c43)c2=O)cc1` [57B], the IC50 is greater than 1000 nM.
As for `COc1ccc(-n2cnc3c(sc4nccc(NCCCO)c43)c2=O)cc1` [28HK], the IC50 was less than 50 nM.
As for `COCCn1cnc2c(sc3ncnc(N(C)C)c32)c1=O` [95EA], the IC50 is greater than 1000 nM.
Turning to `COCCCNc1ccnc2sc3c(=O)n(-c4ccc(Br)cc4)cnc3c12` [28GR], the IC50 was less than 50 nM.
As for `CCc1ccnc2sc3c(=O)n(-c4ccc(C)cc4)cnc3c12` [29G], the IC50 is less than 50 nM.
Consider `O=c1c2sc3nccc(NCCCO)c3c2ncn1-c1ccc(Br)cc1` [28GQ], for which the IC50 was less than 50 nM.
As to `CCc1ccc(-n2cnc3c(sc4nccc(N(C)CC)c43)c2=O)cc1` [28BS], the half-inhibitory concentration (IC50) is less than 50 nM.
With `COc1ccc(-n2cnc3c(sc4nccc(NC5CC5)c43)c2=O)c(C)c1` [131I], the IC50 lay in the range of 50 to 150 nM.
For `COc1ccc(-n2cnc3c(sc4nccc(Cl)c43)c2=O)cc1` [compound 195], the half-maximal inhibitory concentration (IC50) was 150 to 1000 nM.
Take `CCN(C)c1ccnc2sc3c(=O)n(-c4ccc5c(c4)CCO5)cnc3c12` [28CH]: the half-inhibitory concentration (IC50) was less than 50 nM.
For the compound `COc1ccc(-n2cnc3c(sc4ncc(Cl)c(N(C)C)c43)c2=O)cc1` [compound 197], the IC50 is less than 50 nM.
Same read-out and setting: in the case of `Cc1ccc(-n2cnc3c(sc4nc(S)nc(N)c43)c2=O)cc1` [71F] it was less than 50 nM; in that of `Cc1ccc(-n2cnc3c(sc4nccc(N5CC(O)C5)c43)c2=O)cc1` [28DH], 150 to 1000 nM.
Consider `COCC(C)Nc1ccnc2sc3c(=O)n(-c4ccc(Br)cc4)cnc3c12` (stereo not drawn) [28HA], for which the IC50 was 150 to 1000 nM.
In the case of `COc1ccc(-n2cnc3c(sc4nccc(NCC(F)(F)F)c43)c2=O)c(C)c1` [28BP], the IC50 lay within 150 to 1000 nM.
Consider `O=c1c2sc3ncnc(Nc4ccccc4)c3c2ncn1-c1ccc2c(c1)OCO2` [95GG], for which the IC50 is greater than 1000 nM.
The same measure, in the same setting: in the case of `CCN(C)c1ccnc2sc3c(=O)n(-c4ccc(OC)c(F)c4)cnc3c12` [28IA] it was less than 50 nM.
As for `O=c1c2sc3nccc(NC4CC4)c3c2ncn1-c1cccc(Cl)c1` [28CB], the IC50 was in the range of 50 to 150 nM.
The same measure, in the same setting: in the case of `COc1ccc(-n2cnc3c(sc4nccc(OC)c43)c2=O)cc1F` [28FX] it was 150 to 1000 nM; in that of `COc1ccc(-n2cnc3c(sc4nccc(N(C)N)c43)c2=O)cc1` [28DO], less than 50 nM.
As for `O=c1c2sc3nccc(OCC4CC4)c3c2ncn1-c1ccc(Br)cc1` [66L], the IC50 was in the range of 150 to 1000 nM.
For `CNc1nc(N)c2c(n1)sc1c(=O)n(-c3ccc(C)cc3)cnc12` [71B], the IC50 was greater than 1000 nM.

The same test, now with this note: against Quisqualate 1 μM (EC80), FLIPR calcium mobilization, read-out: mGluR1 IC50.
Turning to `C=CCNc1ncnc2sc3c(=O)n(-c4ccc(Br)cc4)cnc3c12` [95BO], the IC50 was 1.54 nM.
Turning to `C=CCN(C)c1ccnc2sc3c(=O)n(-c4ccc(Cl)cc4)cnc3c12` [28DZ], the concentration for half-maximal inhibition (IC50) was determined as 1.08 nM.
As for `CN(C)c1ccnc2sc3c(=O)n(-c4ccc(Br)c(F)c4)cnc3c12` [7DV], the IC50 worked out at 1.71 nM.
Consider `O=c1c2sc3nccc(NCCCO)c3c2ncn1-c1ccc(Br)cc1` [28GQ], for which the IC50 was found to be 0.66 nM.

The test is the same for the next values; noted with them: against Quisqualate 1 μM (EC80), class symbols, read-out: mGIuR 1 IC50.
On to `CN(C)c1ccc(C#N)c2sc3c(=O)n(C4CCCCC4)cnc3c12` [compound 105], for which the IC50 is greater than 1000 nM.
Consider `CN(C)c1ccnc2sc3c(=O)n(-c4cccc(Cl)c4)cnc3c12` [7L], for which the IC50 is less than 50 nM.
As to `COc1cc(-n2cnc3c(sc4nccc(N(C)C)c43)c2=O)ccc1Br` [7DT], the 50% inhibitory concentration (IC50) lay within 150 to 1000 nM.
Same read-out and setting: in the case of `CCCOc1ccc(-n2cnc3c(sc4nccc(N(C)C)c43)c2=O)cc1` [7AG] it was greater than 1000 nM; in that of `CCN(C)c1ccnc2sc3c(=O)n(-c4ccc(OC)cc4)cnc3c12` [7CE], less than 50 nM; in that of `CCNc1ccnc2sc3c(=O)n(-c4ccc(S)c(NC=O)c4)cnc3c12` [131G], less than 50 nM.
On the same count and under the same terms, in the case of `CCNc1ncnc2sc3c(=O)n(-c4ccc5c(c4)CCO5)cnc3c12` [95AC] it was less than 50 nM; in that of `COC(=O)c1sccc1-n1cnc2c(sc3nccc(N(C)C)c32)c1=O` [7AU], greater than 1000 nM; in that of `CSc1ccc(-n2cnc3c4c(N(C)C)ccnc4n(C)c3c2=O)cc1` [134C], greater than 1000 nM.
Still for that read-out and setting: next, `C#CCOc1ccnc2sc3c(=O)n(-c4ccc(C)cc4)cnc3c12` [66A]: less than 50 nM; `CCNc1ncnc2sc3c(=O)n(-c4ccc(C)cc4)cnc3c12` [95P]: less than 50 nM; `CN(C)c1ccnc2sc3c(=O)n(Cc4ccco4)cnc3c12` [15H]: 150 to 1000 nM.
Consider `CN(C)c1ccnc2sc3c(=O)n(C(C)(C)C)cnc3c12` [15P], for which the IC50 is 150 to 1000 nM.
`Cc1ccc(-n2cnc3c(sc4nccc(N(C)C)c43)c2=O)cc1Cl` [7DG]: the IC50 is less than 50 nM.
For `CN(C)c1ccc(F)c2sc3c(=O)n(C4CCCCC4)cnc3c12` [compound 104], the IC50 is greater than 1000 nM.
As to `CCN(C)c1ncnc2sc3c(=O)n(-c4cccnc4)cnc3c12` [95M], the IC50 lay within 50 to 150 nM.
Still for that read-out and setting: in the case of `COc1ccc(-n2cnc3c(sc4nccc(NC5CCCCC5)c43)c2=O)cc1` [28E] it was greater than 1000 nM.
Take `CCN(C)c1ncnc2sc3c(=O)n(-c4ccc(C)nc4)cnc3c12` [95U]: the IC50 is less than 50 nM.
`O=c1c2sc3ncccc3c2ncn1-c1ccccc1` [compound 11]: the IC50 was greater than 1000 nM.
The same measure, in the same setting: next, `CN(C)c1ccnc2sc3c(=O)n(-c4ccc(Br)c(F)c4)cnc3c12` [7DV]: less than 50 nM; `CCN(CC)c1ccnc2sc3c(=O)n(-c4ccc(OC)cc4)cnc3c12` [28AQ]: 50 to 150 nM; `CN(C)c1ccnc2c1c1ncn(-c3ccc(OC(F)F)cc3)c(=O)c1n2C` [134D]: greater than 1000 nM.
Take `CN(C)c1ccnc2sc3c(=O)n(-c4ccc5[nH]c(C(F)(F)F)nc5c4)cnc3c12` [7BD]: the IC50 was greater than 1000 nM.
With `COc1ccc(-n2cnc3c(sc4nccc(NCC(F)(F)F)c43)c2=O)cc1` [28AW], the IC50 was less than 50 nM.
Regarding `CCNc1ncnc2sc3c(=O)n(-c4ccc(OC(F)(F)F)cc4)cnc3c12` [95V], the IC50 fell in the range of 150 to 1000 nM.
In the case of `CN(C)c1ccnc2sc3c(=O)n(-c4cccc(C5CC5)c4)cnc3c12` [137B], the IC50 is less than 50 nM.
Same read-out and setting: in the case of `Cc1nc2cc(-n3cnc4c(sc5nccc(N(C)C)c54)c3=O)ccc2s1` [7AT] it was greater than 1000 nM.
Regarding `CCN(C)c1ncnc2sc3c(=O)n(-c4ccc(SC)cc4)cnc3c12` [95L], the IC50 is less than 50 nM.
As for `Cc1ccc(-n2cnc3c(sc4nc(N5CCN(C)CC5)cc(N(C)C)c43)c2=O)cc1` [59A], the half-inhibitory concentration (IC50) was greater than 1000 nM.
In the case of `C=CCNc1ccnc2sc3c(=O)n(C4CCCCC4)cnc3c12` [72B], the IC50 was less than 50 nM.
For `Nc1ccnc2sc3c(=O)n(C4CCCCC4)cnc3c12` [72A], the concentration for half-maximal inhibition (IC50) is less than 50 nM.
In the case of `Cc1ccc(-n2cnc3c(sc4nc(N)nc(N)c43)c2=O)cc1` [71A], the IC50 is less than 50 nM.
For `CN(C)c1ccnc2sc3c(=O)n(-c4ccc5c(c4)CCC5)cnc3c12` [7BI], the IC50 was less than 50 nM.
`O=c1c2sc3nccc(NC4CCC4)c3c2ncn1C1CCCCC1` [28W]: the 50% inhibitory concentration (IC50) is 150 to 1000 nM.
Regarding `CCCNc1ccnc2sc3c(=O)n(-c4ccc(OC)cc4)cnc3c12` [28AR], the IC50 is less than 50 nM.
As to `CN(C)c1ccnc2sc3c(=O)n(-c4ccc5c(c4)CC(=O)N5)cnc3c12` [7BE], the IC50 was greater than 1000 nM.
With `CN(C)c1ccnc2sc3c(=O)[nH]cnc3c12` [7E], the IC50 was greater than 1000 nM.
`CCNc1ncnc2sc3c(=O)n(-c4ccc(SC)cc4)cnc3c12` [95AD]: the half-inhibitory concentration (IC50) was less than 50 nM.
For the compound `CCNc1ccnc2sc3c(=O)n(C4CCCCC4)cnc3c12` [28P], the IC50 was less than 50 nM.
`CN(C)c1ccnc2sc3c(=O)n(-c4ccc5c(c4)OCO5)cnc3c12` [7A]: the IC50 was less than 50 nM.
